# Results from ChEMBL document CHEMBL6078684, “Discovery of a Novel Non-invasive AR PROTAC Degrader for the Topical Treatment of Androgenetic Alopecia” (J Med Chem, 2024).
# The source made the active and inactive calls. No cut-off for these calls is given here.
# Experiments:
# [1] = Ratio of drug concentration in male ICR mouse skin to liver at 4 mg/ml, TOP measured after 0.25 hrs by LC-MS/MS analysis; format: ADME, tissue-based; settings: in vivo, topical_or_ocular
# [2] = target: T1, Protein cereblon/Androgen receptor (Mus musculus) (UniProt P19091+Q8C7D2); assay: In vivo PROTAC activity at CRBN/AR in testosterone induced male C57BL/6 mouse androgenetic alopecia model assessed as decrease in AR protein level in skin at 0.4 % TOP administered once daily for 14 days with co-administration of 0.2% testosterone for 28 days by Western blot analysis relative to control; format: functional, organism-based; set-up: scale not given: the % may be the effect or the level left; settings: time 14.0 day
# T1 sequence (P19091 whole entry, looked up): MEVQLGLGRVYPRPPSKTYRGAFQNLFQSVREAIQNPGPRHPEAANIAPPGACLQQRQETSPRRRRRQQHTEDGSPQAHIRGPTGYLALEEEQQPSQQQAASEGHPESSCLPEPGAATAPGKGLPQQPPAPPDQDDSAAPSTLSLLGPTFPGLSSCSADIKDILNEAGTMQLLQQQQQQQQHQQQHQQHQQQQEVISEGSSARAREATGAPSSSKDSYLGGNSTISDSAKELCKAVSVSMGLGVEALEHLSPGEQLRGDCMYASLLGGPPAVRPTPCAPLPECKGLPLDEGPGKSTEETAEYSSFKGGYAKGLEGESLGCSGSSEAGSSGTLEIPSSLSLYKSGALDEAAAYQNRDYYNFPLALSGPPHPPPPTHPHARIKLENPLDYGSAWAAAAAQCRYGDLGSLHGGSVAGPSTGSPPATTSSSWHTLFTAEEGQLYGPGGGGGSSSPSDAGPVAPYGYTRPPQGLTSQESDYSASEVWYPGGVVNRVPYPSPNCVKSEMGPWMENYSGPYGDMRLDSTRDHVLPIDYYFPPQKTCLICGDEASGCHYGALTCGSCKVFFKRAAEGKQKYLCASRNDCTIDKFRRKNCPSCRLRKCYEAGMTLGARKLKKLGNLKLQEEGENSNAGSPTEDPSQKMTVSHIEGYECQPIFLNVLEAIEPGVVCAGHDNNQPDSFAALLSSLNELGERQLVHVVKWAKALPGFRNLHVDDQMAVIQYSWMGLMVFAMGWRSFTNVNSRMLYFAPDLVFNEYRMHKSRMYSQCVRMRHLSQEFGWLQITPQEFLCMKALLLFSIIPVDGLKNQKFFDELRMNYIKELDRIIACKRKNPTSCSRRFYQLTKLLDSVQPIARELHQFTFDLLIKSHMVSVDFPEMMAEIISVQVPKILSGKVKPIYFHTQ
# T1 sequence (Q8C7D2 whole entry, looked up): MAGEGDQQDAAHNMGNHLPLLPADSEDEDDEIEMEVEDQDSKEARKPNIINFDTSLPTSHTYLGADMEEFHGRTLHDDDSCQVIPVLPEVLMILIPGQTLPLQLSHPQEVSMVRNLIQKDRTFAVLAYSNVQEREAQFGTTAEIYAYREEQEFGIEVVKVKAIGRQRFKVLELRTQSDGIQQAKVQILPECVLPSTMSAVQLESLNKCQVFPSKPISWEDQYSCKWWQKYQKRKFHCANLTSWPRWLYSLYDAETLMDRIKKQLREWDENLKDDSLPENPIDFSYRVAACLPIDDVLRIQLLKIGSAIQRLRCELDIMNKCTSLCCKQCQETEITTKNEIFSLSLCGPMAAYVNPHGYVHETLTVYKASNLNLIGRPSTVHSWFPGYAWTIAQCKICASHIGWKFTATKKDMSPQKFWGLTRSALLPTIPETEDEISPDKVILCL
# [3] = target: T2, Protein cereblon/Androgen receptor (Homo sapiens, UniProt P10275+Q96SW2); assay: PROTAC activity at CRBN/AR in human dermal papilla cells assessed as induction of AR degradation at 500 nM in presence of MLN4924 by Western blot analysis; format: cell-based; settings: Human dermal papilla cell
# T2 sequence (P10275 whole entry, looked up): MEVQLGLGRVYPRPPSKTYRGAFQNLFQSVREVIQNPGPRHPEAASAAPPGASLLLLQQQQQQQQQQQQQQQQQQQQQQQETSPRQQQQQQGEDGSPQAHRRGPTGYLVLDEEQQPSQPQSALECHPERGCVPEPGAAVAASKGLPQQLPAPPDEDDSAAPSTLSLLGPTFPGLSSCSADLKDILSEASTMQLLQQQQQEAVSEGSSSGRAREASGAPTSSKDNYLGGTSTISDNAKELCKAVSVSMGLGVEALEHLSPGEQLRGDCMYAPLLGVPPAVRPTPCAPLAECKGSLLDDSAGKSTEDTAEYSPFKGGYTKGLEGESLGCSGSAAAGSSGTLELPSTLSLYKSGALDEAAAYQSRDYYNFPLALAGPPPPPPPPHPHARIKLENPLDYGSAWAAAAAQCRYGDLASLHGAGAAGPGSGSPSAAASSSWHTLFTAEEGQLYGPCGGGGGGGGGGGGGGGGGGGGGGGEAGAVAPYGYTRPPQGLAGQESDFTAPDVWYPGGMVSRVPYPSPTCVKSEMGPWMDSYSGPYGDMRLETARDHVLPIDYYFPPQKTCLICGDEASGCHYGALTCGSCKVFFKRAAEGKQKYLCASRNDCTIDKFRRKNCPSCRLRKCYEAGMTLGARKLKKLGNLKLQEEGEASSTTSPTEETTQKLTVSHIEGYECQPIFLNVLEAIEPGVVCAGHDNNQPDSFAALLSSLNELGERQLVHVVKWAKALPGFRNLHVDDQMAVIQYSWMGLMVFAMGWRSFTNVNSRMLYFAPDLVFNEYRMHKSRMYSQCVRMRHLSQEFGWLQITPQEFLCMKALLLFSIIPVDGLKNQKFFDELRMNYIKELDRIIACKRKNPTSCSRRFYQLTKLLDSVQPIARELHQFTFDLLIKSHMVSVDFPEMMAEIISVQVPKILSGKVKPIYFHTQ
# T2 sequence (Q96SW2 whole entry, looked up): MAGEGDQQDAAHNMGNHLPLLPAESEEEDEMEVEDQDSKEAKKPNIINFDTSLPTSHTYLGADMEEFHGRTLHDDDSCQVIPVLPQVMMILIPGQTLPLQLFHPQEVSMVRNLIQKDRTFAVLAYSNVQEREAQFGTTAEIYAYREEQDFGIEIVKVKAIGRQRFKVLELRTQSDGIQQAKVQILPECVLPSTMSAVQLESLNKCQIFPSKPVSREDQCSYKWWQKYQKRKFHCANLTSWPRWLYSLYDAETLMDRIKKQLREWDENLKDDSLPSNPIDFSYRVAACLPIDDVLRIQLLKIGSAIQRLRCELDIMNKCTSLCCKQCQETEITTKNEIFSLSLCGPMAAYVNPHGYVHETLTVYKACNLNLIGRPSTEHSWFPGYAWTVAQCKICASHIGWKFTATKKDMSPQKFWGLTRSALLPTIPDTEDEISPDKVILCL
# [4] = test system: Mus musculus; assay: Hair regeneration efficacy in testosterone induced male C57BL/6 mouse androgenetic alopecia model assessed as increase in hair density at 0.4 %, TOP administered once daily for 14 days with co-administration of 0.2% testosterone and measured after 28 days by trichoscope photographic analysis; format: functional, organism-based; settings: time 28.0 day
# [5] = Ratio of drug concentration in male ICR mouse skin to lungs at 4 mg/ml, TOP measured after 1 hrs by LC-MS/MS analysis; format: ADME, tissue-based, Skin/Lung; settings: in vivo, topical_or_ocular
# [6] = Ratio of drug concentration in male ICR mouse skin to liver at 4 mg/ml, TOP measured after 12 hrs by LC-MS/MS analysis; format: ADME, tissue-based; settings: in vivo, topical_or_ocular
# [7] = test system: Mus musculus; assay: (§1) Hair regeneration efficacy in testosterone induced male C57BL/6 mouse androgenetic alopecia model assessed as increase in Ki67 expression in skin at 0.4 % TOP administered once daily for 14 days with co-administration of 0.2% testosterone for 28 days by DAPI staining based immunofluorescence analysis; format: functional, organism-based; settings: time 14.0 day
# [8] = Drug uptake in male ICR mouse spleen at 4 mg/ml, TOP measured after 12 hrs by LC-MS/MS analysis; format: ADME, tissue-based; settings: in vivo, topical_or_ocular
# [9] = Ratio of drug concentration in male ICR mouse skin to heart at 4 mg/ml, TOP measured after 0.5 hrs by LC-MS/MS analysis; format: ADME, tissue-based; settings: in vivo, topical_or_ocular
# [10] = Cmax in male ICR mouse plasma at 4 mg/ml, TOP measured after 12 hrs by LC-MS/MS analysis; format: ADME, cell-free; settings: topical or ocular
# [11] = Ratio of drug concentration in male ICR mouse skin to plasma at 4 mg/ml, TOP measured after 0.5 hrs by LC-MS/MS analysis; format: ADME, cell-free; settings: topical or ocular
# [12] = Ratio of drug concentration in male ICR mouse skin to spleen at 4 mg/ml, TOP measured after 12 hrs by LC-MS/MS analysis; format: ADME, tissue-based; settings: in vivo, topical_or_ocular
# [13] = target: T2, Protein cereblon/Androgen receptor; assay: PROTAC activity at CRBN/AR in human dermal papilla cell assessed as induction of AR degradation by measuring maximal efficacy after 24 hrs by Western blot analysis relative to control; format: cell-based
# [14] = Ratio of drug concentration in male ICR mouse skin to liver at 4 mg/ml, TOP measured after 1 hrs by LC-MS/MS analysis; format: ADME, tissue-based; settings: in vivo, topical_or_ocular
# [15] = Ratio of drug concentration in male ICR mouse skin to spleen at 4 mg/ml, TOP measured after 8 hrs by LC-MS/MS analysis; format: ADME, tissue-based; settings: in vivo, topical_or_ocular
# [16] = Ratio of drug concentration in male ICR mouse skin to spleen at 4 mg/ml, TOP measured after 2 hrs by LC-MS/MS analysis; format: ADME, tissue-based; settings: in vivo, topical_or_ocular
# [17] = target: T1, Protein cereblon/Androgen receptor (Mus musculus); assay: In vivo PROTAC activity at CRBN/AR in testosterone induced male C57BL/6 mouse androgenetic alopecia model assessed as decrease in AR protein level in skin at 0.1 to 0.4 % TOP administered once daily for 14 days with co-administration of 0.2% testosterone for 28 days by Western blot analysis; format: functional, organism-based; settings: dose 0.1-0.4 %, time 14.0 day
# [18] = target: T2, Protein cereblon/Androgen receptor; assay: PROTAC activity at CRBN/AR in human dermal papilla cells assessed as inhibition of TGF-beta1 release by measuring TGF-beta1 concentration at 1 uM preincubated with testosterone for 24 hrs followed by compound addition and measured after 48 hrs by ELISA; format: cell-based; settings: Human dermal papilla cell
# [19] = test system: Mus musculus; assay: Hair regeneration efficacy in testosterone induced male C57BL/6 mouse androgenetic alopecia model assessed as well formed stratum corneum in hair at 0.4 %, TOP administered once daily for 14 days with co-administration of 0.2% testosterone and measured after 28 days by SEM analysis; format: functional, organism-based; settings: time 28.0 day
# [20] = test system: Mus musculus; assay: Hair regeneration efficacy in testosterone induced male C57BL/6 mouse androgenetic alopecia model at 0.4 %, TOP administered once daily for 14 days and measured after 21 days with co-administration of 0.2% testosterone for 28 days relative to minoxidil by photographic analysis; format: functional; settings: time 14 day
# [21] = Ratio of drug concentration in male ICR mouse skin to spleen at 4 mg/ml, TOP measured after 0.25 hrs by LC-MS/MS analysis; format: ADME, tissue-based; settings: in vivo, topical_or_ocular
# [22] = Ratio of drug concentration in male ICR mouse skin to spleen at 4 mg/ml, TOP measured after 4 hrs by LC-MS/MS analysis; format: ADME, tissue-based; settings: in vivo, topical_or_ocular
# [23] = Ratio of drug concentration in male ICR mouse skin to heart at 4 mg/ml, TOP measured after 8 hrs by LC-MS/MS analysis; format: ADME, tissue-based; settings: in vivo, topical_or_ocular
# [24] = test system: Mus musculus; assay: as §1, with “0.1” for “0.4”; format: functional, organism-based; settings: time 14.0 day
# [25] = target: T1, Protein cereblon/Androgen receptor (Mus musculus); assay: as §1, with “In vivo PROTAC activity at CRBN/AR” for “Hair regeneration efficacy”, “beta-catenin” for “Ki67”, “expression level” for “expression”; format: functional, organism-based; settings: time 14.0 day
# [26] = target: T2, Protein cereblon/Androgen receptor; assay: PROTAC activity at CRBN/AR in human dermal papilla cells assessed as induction of AR degradation at 500 nM in presence of pomalidomide by Western blot analysis; format: cell-based; settings: Human dermal papilla cell
# [27] = Ratio of drug concentration in male ICR mouse skin to kidney at 4 mg/ml, TOP measured after 2 hrs by LC-MS/MS analysis; format: ADME, tissue-based; settings: in vivo, topical_or_ocular
# [28] = Ratio of drug concentration in male ICR mouse skin to heart at 4 mg/ml, TOP measured after 0.25 hrs by LC-MS/MS analysis; format: ADME, tissue-based; settings: in vivo, topical_or_ocular
# [29] = target: T2, Protein cereblon/Androgen receptor; assay: PROTAC activity at CRBN/AR in human dermal papilla cell assessed as induction of AR degradation at 500 nM measured after 24 hrs by Western blot analysis; format: cell-based
# [30] = Ratio of drug concentration in male ICR mouse skin to lungs at 4 mg/ml, TOP measured after 0.5 hrs by LC-MS/MS analysis; format: ADME, tissue-based, Skin/Lung; settings: in vivo, topical_or_ocular
# [31] = Ratio of drug concentration in male ICR mouse skin to plasma at 4 mg/ml, TOP measured after 8 hrs by LC-MS/MS analysis; format: ADME, cell-free; settings: other tissue, topical_or_ocular
# [32] = Ratio of drug concentration in male ICR mouse skin to lungs at 4 mg/ml, TOP measured after 12 hrs by LC-MS/MS analysis; format: ADME, tissue-based, Skin/Lung; settings: in vivo, topical_or_ocular
# [33] = Ratio of drug concentration in male ICR mouse skin to plasma at 4 mg/ml, TOP measured after 12 hrs by LC-MS/MS analysis; format: ADME, cell-free; settings: other tissue, topical_or_ocular
# [34] = Ratio of drug concentration in male ICR mouse skin to plasma at 4 mg/ml, TOP measured after 0.25 hrs by LC-MS/MS analysis; format: ADME, cell-free; settings: topical or ocular
# [35] = AUC (0 to t) in male ICR mouse plasma at 4 mg/ml, TOP measured after 12 hrs by LC-MS/MS analysis; format: ADME, cell-free; settings: topical or ocular
structure (smiles),measurement,setting,value
N#Cc1ccc(O[C@H]2CC[C@H](NC(=O)c3ccc(C4CCN(CC5CCCN(c6ccc(C(=O)NC7CCC(=O)NC7=O)cc6)C5)CC4)cc3)CC2)cc1Cl (stereo not given in full),Ratio,[1],344.99
same,Activity,[2],> 50%
same,Activity,[3],Not active; Compound Activity Dependent On Ubiquitin-Proteosome System
same,Activity,[4],Active
same,Ratio,[5],476.62
same,Ratio,[6],173.24
same,Activity,[7],Active
same,Drug uptake,[8],Active
same,Ratio,[9],119.61
same,Cmax,[10],708 ng/mL
same,Kp at 0.5 h,[11],129
same,Ratio,[12],249.88
same,Emax,[13],63%
same,Ratio,[14],485.29
same,Ratio,[15],347.97
same,Ratio,[16],450.95
same,Activity,[17],Active
same,Activity,[18],736 pg/mL
same,Activity,[19],Active
same,Activity,[20],100%
same,Ratio,[21],510.81
same,Ratio,[22],635.83
same,Ratio,[23],754.91
same,Activity,[24],Active; Moderate Increase Observed Compared To Model Group
same,Activity,[25],Active
same,Activity,[26],inactive
same,Ratio,[27],410.02
same,Ratio,[28],333.81
same,Activity,[29],Active; Maximum Degradation Level Observed
same,Ratio,[30],54.37
same,Ratio,[31],2610.82
same,Ratio,[32],288.26
same,Ratio,[33],1736.28
same,Kp at 0.25 h,[34],117
same,AUC(0-t) at 12 h,[35],992 ng·h/mL
